According to ChEMBL document CHEMBL1144193, “Design, synthesis, and evaluation of novel aryl-tetrahydropyridine PPARalpha/gamma dual agonists” (Bioorg Med Chem Lett, 2008):
pEC50: −log10 of the molar value. ≈ marks a conversion by molar mass, not a printed value.

Columns and labels:
[1] = biological target: T1, Peroxisome proliferator-activated receptor gamma (Homo sapiens, UniProt P37231)
T1 sequence (P37231 whole entry): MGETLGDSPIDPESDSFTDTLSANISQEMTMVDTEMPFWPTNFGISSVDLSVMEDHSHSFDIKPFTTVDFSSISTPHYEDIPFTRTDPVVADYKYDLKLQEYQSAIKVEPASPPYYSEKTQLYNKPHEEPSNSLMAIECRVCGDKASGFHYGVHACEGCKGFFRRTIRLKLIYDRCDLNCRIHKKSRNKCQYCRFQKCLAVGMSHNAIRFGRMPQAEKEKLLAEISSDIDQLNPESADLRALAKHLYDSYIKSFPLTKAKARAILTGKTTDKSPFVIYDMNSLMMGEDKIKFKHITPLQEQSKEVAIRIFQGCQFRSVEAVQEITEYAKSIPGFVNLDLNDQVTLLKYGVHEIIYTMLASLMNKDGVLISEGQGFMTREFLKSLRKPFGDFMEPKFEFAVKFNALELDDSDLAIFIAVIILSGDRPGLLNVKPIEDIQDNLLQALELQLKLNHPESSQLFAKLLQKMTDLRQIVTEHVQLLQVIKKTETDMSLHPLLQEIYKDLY
Description: Agonist activity at human PPARgamma expressed in african green monkey CV-1 co-transfected with GAL4 by dual-glo luciferase reporter gene assay

[2] = biological target: T2, Peroxisome proliferator-activated receptor alpha (Homo sapiens, UniProt Q07869); test: Agonist activity at human PPARalpha expressed in african green monkey CV-1 by co-transfected with GAL4 by dual-glo luciferase reporter gene assay; format: functional
T2 sequence (Q07869 whole entry): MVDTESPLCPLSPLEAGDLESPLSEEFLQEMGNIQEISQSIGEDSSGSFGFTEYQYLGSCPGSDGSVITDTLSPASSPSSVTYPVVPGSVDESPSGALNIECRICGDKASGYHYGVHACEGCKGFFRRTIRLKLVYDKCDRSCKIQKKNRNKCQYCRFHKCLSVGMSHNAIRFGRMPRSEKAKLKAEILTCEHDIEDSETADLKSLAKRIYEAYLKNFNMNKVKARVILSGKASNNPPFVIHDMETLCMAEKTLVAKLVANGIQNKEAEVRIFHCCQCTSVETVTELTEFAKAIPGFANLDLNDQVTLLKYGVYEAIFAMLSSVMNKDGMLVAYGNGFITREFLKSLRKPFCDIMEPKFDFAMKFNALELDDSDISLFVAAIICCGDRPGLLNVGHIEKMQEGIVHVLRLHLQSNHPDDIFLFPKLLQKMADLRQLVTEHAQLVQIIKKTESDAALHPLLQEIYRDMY

[3] = Clearance in Sprague-Dawley rat at 3 mg/kg, iv; format: ADME, organism-based; parameters: dose 3 mg/kg, route intravenous; conditions: in vivo
[4] = test system: Mus musculus; test: Antihyperglycemic activity in db/db mouse assessed as increase in body weight at 0.3 mg/kg, po once daily after 28 days; format: functional
[5] = test system: Mus musculus; test: Antihyperglycemic activity in db/db mouse assessed as reduction in plasma glucose level at 1 mg/kg, po once daily after 28 days relative to non-fasting control; format: functional; parameters: scale not given: the % may be the effect or the level left
[6] = test system: Mus musculus; test: Antihyperglycemic activity in po dosed db/db mouse assessed as reduction in glucose level after 28 days; format: functional; conditions: 672 h
[7] = test system: Mus musculus; test: Antihyperglycemic activity in db/db mouse assessed as reduction in plasma glucose level at 3 mg/kg, po once daily after 28 days relative to non-fasting control; parameters: scale not given: the % may be the effect or the level left
[8] = Oral bioavailability in Sprague-Dawley rat at 3 mg/kg; format: ADME, organism-based; conditions: in vivo
[9] = Cmax in Sprague-Dawley rat at 3 mg/kg, po; format: ADME, organism-based; parameters: dose 3 mg/kg, route oral; conditions: in vivo
[10] = Half life in Sprague-Dawley rat at 3 mg/kg, iv; format: ADME, organism-based; parameters: dose 3 mg/kg, route intravenous; conditions: in vivo
[11] = Solubility at pH 6.8; format: physicochemical; conditions: buffer
[12] = test system: Mus musculus; test: Antihyperglycemic activity in db/db mouse assessed as increase in body weight at 3 mg/kg, po once daily after 28 days
[13] = AUC (0 to 24 hrs) in Sprague-Dawley rat at 3 mg/kg, iv; format: ADME, organism-based; parameters: time < 24 hr, dose 3 mg/kg, route intravenous; conditions: plasma
[14] = test system: Mus musculus; test: Antihyperglycemic activity in db/db mouse assessed as increase in body weight at 1 mg/kg, po once daily after 28 days; format: functional
[15] = Tmax in Sprague-Dawley rat at 3 mg/kg, po; format: ADME, organism-based; parameters: dose 3 mg/kg, route oral; conditions: in vivo
[16] = test system: Mus musculus; test: Antihyperglycemic activity in db/db mouse assessed as reduction in plasma glucose level at 0.3 mg/kg, po once daily after 28 days relative to non-fasting control; format: functional; parameters: scale not given: the % may be the effect or the level left
[17] = Volume of distribution at steady state in Sprague-Dawley rat at 3 mg/kg, iv; conditions: in vivo
[18] = test system: Mus musculus; test: Antihyperglycemic activity in db/db mouse assessed as increase in body weight at 0.1 mg/kg, po once daily after 28 days; format: functional
[19] = test system: Mus musculus; test: Antihyperglycemic activity in db/db mouse assessed as reduction in plasma glucose level at 0.1 mg/kg, po once daily after 28 days relative to non-fasting control; format: functional; parameters: scale not given: the % may be the effect or the level left
[20] = AUC (0 to 24 hrs) in Sprague-Dawley rat at 3 mg/kg, po; format: ADME, organism-based; parameters: time < 24 hr, dose 3 mg/kg, route oral; conditions: plasma
[21] = test system: Mus musculus; test: Antihyperglycemic activity in db/db mouse assessed as reduction in plasma glucose level at 0.03 mg/kg, po once daily after 28 days relative to non-fasting control; format: functional; parameters: scale not given: the % may be the effect or the level left
[22] = test system: Mus musculus; test: Antihyperglycemic activity in db/db mouse assessed as increase in body weight at 0.03 mg/kg, po once daily after 28 days; format: functional

SMILES	pEC50 [1]	pEC50 [2]	also measured
CCOC(Cc1ccc(OCCN2CC=C(c3cnccn3)CC2)cc1)C(=O)O (stereo not drawn)	4.90	5.44	
CCOC(Cc1ccc(OCCN2CC=C(c3cccc(Cl)c3Cl)CC2)cc1)C(=O)O (stereo not drawn)	6.18	7.19	
COc1ccc(OC(=O)N(CC(=O)O)Cc2ccc(OCCc3nc(-c4ccccc4)oc3C)cc2)cc1 [MURAGLITAZAR]		5.39	clearance [3]: 0.73 mL/min/kg; Activity [4]: 12.7 g; Activity [5]: 54%; ED30 [6]: 0.411 mg/kg; Activity [7]: 78%; bioavailability [8]: 96.2%; Cmax [9]: 25.8 µM; half-life [10]: 840 min; solubility [11]: 41 µg/mL (≈ 79.4 µM); Activity [12]: 16.1 g; AUC(0-t) at 24 h [13]: 101 µM·h; Activity [14]: 14.5 g; Tmax [15]: 34.8 min; Activity [16]: 11%; Vd [17]: 0.57 L/kg; Activity [18]: 10.5 g; Activity [19]: 4%; AUC(0-t) at 24 h [20]: 98.8 µM·h
CCO[C@@H](Cc1ccc(OCCc2ccc(OS(C)(=O)=O)cc2)cc1)C(=O)O [TESAGLITAZAR]	6.15	5.51	
CCOC(Cc1ccc(OCCN2CC=C(c3cc(Cl)cc(Cl)c3)CC2)cc1)C(=O)O (stereo not drawn)	5.85	5.52	
CCOC(Cc1ccc(OCCN2CC=C(c3ccccc3Cl)CC2)cc1)C(=O)O (stereo not drawn)	5.23	5.11	
CCOC(Cc1ccc(OCCN2CC=C(c3ccc(C(F)(F)F)cc3)CC2)cc1)C(=O)O (stereo not drawn)	5.72	5.47	
CCOC(Cc1ccc(OCCCN2CC=C(c3ccc(C(F)(F)F)cc3)CC2)cc1)C(=O)O (stereo not drawn)	6.30	5.01	
CCO[C@@H](Cc1ccc(OCCN2CC=C(c3ccc(Cl)cc3)CC2)cc1)C(=O)O	6.19	5.76	clearance [3]: 0.23 mL/min/kg; Activity [4]: 12.6 g; Activity [5]: 77%; ED30 [6]: 0.067 mg/kg; Activity [21]: 14%; bioavailability [8]: > 100%; Cmax [9]: 15.9 µM; half-life [10]: 1380 min; solubility [11]: 3260 µg/mL (≈ 7590 µM); AUC(0-t) at 24 h [13]: 272 µM·h; Activity [14]: 13.7 g; Tmax [15]: 30 min; Activity [16]: 63%; Vd [17]: 0.44 L/kg; Activity [18]: 12.4 g; Activity [19]: 37%; Activity [22]: 11.2 g; AUC(0-t) at 24 h [20]: 270 µM·h
CCOC(Cc1ccc(OCCN2CC=C(c3cc(Cl)ccc3Cl)CC2)cc1)C(=O)O (stereo not drawn)	5.84	5.95	
CC(C)(Oc1cccc(OCCN2CC=C(c3ccc(Cl)cc3)CC2)c1)C(=O)O	4.73	6.48	
CN(CCOc1ccc(CC2SC(=O)NC2=O)cc1)c1ccccn1 (stereo not drawn) [ROSIGLITAZONE]			clearance [3]: 2.99 mL/min/kg; Activity [4]: 11.1 g; Activity [5]: 56%; ED30 [6]: 0.21 mg/kg; Activity [7]: 68%; bioavailability [8]: > 100%; Cmax [9]: 44.3 µM; half-life [10]: 63 min; solubility [11]: 14 µg/mL (≈ 39.2 µM); Activity [12]: 13.9 g; AUC(0-t) at 24 h [13]: 53.7 µM·h; Activity [14]: 12.5 g; Tmax [15]: 15 min; Activity [16]: 37%; Activity [18]: 10.5 g; Activity [19]: 17%; AUC(0-t) at 24 h [20]: 94.2 µM·h
CCOC(Cc1ccc(OCCN2CC=C(c3ncccn3)CC2)cc1)C(=O)O (stereo not drawn)	5.34	5.12	
CCOC(Cc1ccc(OCCN2CC=C(c3cccs3)CC2)cc1)C(=O)O (stereo not drawn)	5.48	5.07	
CCOC(Cc1ccc(OCCN2CC=C(c3cccc(Cl)c3)CC2)cc1)C(=O)O (stereo not drawn)	5.78	5.49	
CCOC(Cc1ccc(OCCN2CC=C(c3cccc(C(F)(F)F)c3)CC2)cc1)C(=O)O (stereo not drawn)	5.65	5.51	
CCC(Cc1ccc(OCCN2CC=C(c3ccc(Cl)cc3)CC2)cc1)C(=O)O (stereo not drawn)	5.28	5.41	

SMILES	pEC50 [1]	pEC50 [2]	also measured
CCOC(Cc1ccc(OCCN2CC=C(c3cccc(OC)c3)CC2)cc1)C(=O)O (stereo not drawn)	5.62	4.76	
CCOC(Cc1ccc(OCCCN2CC=C(c3ccc(Cl)cc3)CC2)cc1)C(=O)O (stereo not drawn)	5.63	5.01	
CCOC(Cc1ccc(OCCCN2CC=C(c3ccc(Cl)c(Cl)c3)CC2)cc1)C(=O)O (stereo not drawn)	6.14	5.77	
CCOC(Cc1ccc(OCCN2CC=C(c3ccc(Cl)c(Cl)c3)CC2)cc1)C(=O)O (stereo not drawn)	6.17	5.94	
CCOC(Cc1ccc(OCCN2CC=C(c3ccc(F)cc3)CC2)cc1)C(=O)O (stereo not drawn)	5.43	5.65	
CC(C)(Oc1ccc(OCCN2CC=C(c3ccc(Cl)cc3)CC2)cc1)C(=O)O	4.64	6.06	
CCCc1ccc(C2=CCN(CCOc3ccc(CC(OCC)C(=O)O)cc3)CC2)cc1 (stereo not drawn)	6.76	5.68	
CCOC(Cc1ccc(OCCN2CC=C(c3ccc(Cl)cc3Cl)CC2)cc1)C(=O)O (stereo not drawn)	6.15	5.95	
CCOC(Cc1ccc(OCCN2CC=C(c3ccccc3)CC2)cc1)C(=O)O (stereo not drawn)	5.67	5.22	
CCOC(Cc1ccc(OCCN2CC=C(c3ccccc3C(F)(F)F)CC2)cc1)C(=O)O (stereo not drawn)	5.12	6.27	
CCOC(Cc1ccc(OCCN2CC=C(c3ccccc3OC)CC2)cc1)C(=O)O (stereo not drawn)	5.41	4.74	
CCOC(Cc1ccc(OCCN2CC=C(c3ccc(OC)cc3)CC2)cc1)C(=O)O (stereo not drawn)	6.40	4.95	
CCOC(Cc1ccc(OCCN2CC=C(c3ccc(CC)cc3)CC2)cc1)C(=O)O (stereo not drawn)	6.16	5.12	
CCO[C@@H](Cc1ccc(OCCN2CC=C(c3ccc(Cl)c(Cl)c3)CC2)cc1)C(=O)O	6.06	6.21	
CCOC(Cc1ccc(OCCN2CC=C(c3ccccn3)CC2)cc1)C(=O)O (stereo not drawn)	5.64	4.99	
CC(Cc1ccc(OCCN2CC=C(c3ccc(Cl)cc3)CC2)cc1)(Oc1ccccc1)C(=O)O (stereo not drawn)	5.31	4.59	
CCOC(Cc1ccc(OCCN2CC=C(c3ccc(Cl)cc3)CC2)cc1)C(=O)O (stereo not drawn)	5.69	5.15	
